This note sets out measurements from patent US9981999B2, “Neprilysin inhibitors” (THERAVANCE BIOPHARMA R&D IP, LLC, priority 2012, dated 2018).

Molecules are shown by their SMILES.

The test addresses T1, human neprilysin (EC 3.4.24.11; NEP) (Homo sapiens, UniProt P08473).
T1 construct: purchased R&D Systems, Minneapolis, MN 1182-ZN
As to the kind of experiment: In vitro enzyme inhibition assay at human NEP (fluorogenic peptide substrate). The test is classed as biochemical. The note with it: recombinant human NEP; fluorogenic substrate Mca-D-Arg-Arg-Leu-Dap-(Dnp)-OH; 37° C., pH 7.5; read-out: pKi value at human NEP (converted). The protocol: The inhibitory activities of compounds at human and rat neprilysin (EC 3.4.24.11; NEP) and human angiotensin converting enzyme (ACE) were determined using in vitro assays as described below.
Recombinant human NEP and recombinant human ACE were obtained commercially (R&D Systems, Minneapolis, MN, catalog numbers 1182-ZN and 929-ZN, respectively). The fluorogenic peptide substrate Mca-D-Arg-Arg-Leu-Dap-(Dnp)-OH (Medeiros et al. (1997) Braz. J. Med. Biol. Res. 30:1157-62; Anaspec, San Jose, Calif.) and Abz-Phe-Arg-Lys(Dnp)-Pro-OH (Araujo et al. (2000) Biochemistry 39:8519-8525; Bachem, Torrance, Calif.) were used in the NEP and ACE assays respectively.
The assays were performed in 384-well white opaque plates at 37° C. using the fluorogenic peptide substrates at a concentration of 10 µM in Assay Buffer (NEP: 50 mM HEPES, pH 7.5, 100 mM NaCl, 0.01% polyethylene glycol sorbitan monolaurate (Tween-20), 10 μM ZnSO4; ACE: 50 mM HEPES, pH 7.5, 100 mM NaCl, 0.01% Tween-20, 1 μM ZnSO4).
Test compounds were assayed over the range of concentrations from […] to 20 μM. Test compounds were added to the enzymes and incubated for 30 minute at 37° C. prior to initiating the reaction by the addition of substrate. […]
Plates were read on a fluorometer with excitation and emission wavelengths set to 320 nm and 405 nm, respectively. […]

T1 sequence (P08473 52-750 limits assumed): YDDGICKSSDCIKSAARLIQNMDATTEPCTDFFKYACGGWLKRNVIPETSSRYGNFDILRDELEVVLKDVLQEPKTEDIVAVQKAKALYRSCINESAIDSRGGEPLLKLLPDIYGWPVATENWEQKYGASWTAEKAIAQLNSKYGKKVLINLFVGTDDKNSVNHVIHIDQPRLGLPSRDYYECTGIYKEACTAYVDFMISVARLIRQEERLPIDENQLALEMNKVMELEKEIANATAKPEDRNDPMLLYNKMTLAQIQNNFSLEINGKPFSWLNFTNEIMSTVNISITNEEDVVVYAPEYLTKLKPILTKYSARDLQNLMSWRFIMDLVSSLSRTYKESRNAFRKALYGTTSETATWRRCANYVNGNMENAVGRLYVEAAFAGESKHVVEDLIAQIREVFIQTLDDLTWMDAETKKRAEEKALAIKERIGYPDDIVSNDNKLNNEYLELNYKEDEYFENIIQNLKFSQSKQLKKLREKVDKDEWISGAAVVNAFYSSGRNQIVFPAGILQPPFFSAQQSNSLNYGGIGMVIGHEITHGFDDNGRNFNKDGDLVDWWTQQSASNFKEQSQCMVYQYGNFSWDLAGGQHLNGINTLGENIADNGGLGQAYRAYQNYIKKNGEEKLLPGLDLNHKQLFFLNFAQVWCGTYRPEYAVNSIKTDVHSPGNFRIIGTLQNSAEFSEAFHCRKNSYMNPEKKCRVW

For the compound `CC(=O)c1cc(C(=O)NN(Cc2ccc(-c3cc(Cl)ccc3F)cc2)C[C@@H](O)C(=O)O)[nH]n1` [Example 6A, (R)-3-[N′-(5-Acetyl-2H-pyrazole-3-carbonyl)-N-(5′-chloro-2′-fluorobiphenyl-4-ylmethyl)hydrazino]-2-hydroxypropionic Acid], the Ki is at most 1 nM.
